Read-outs that look alike come from different tables or passages of the source.
Key:
Format in all cases: in vivo
[1] = system: Tetranychus urticae (spider mites - adults); experiment: Mortality test on Tetranychus urticae adults (TUa), contact; details: topical, 72 h, read-out: TUa grading of mortality; for mortality at 100 ppm: rate 100 ppm
Description: (§1) The activity of the Product was determined using a variety of insect pests. The Product was used in the form of liquid preparations containing from 100 to 500 parts per million (ppm) by weight of the Product. The preparations were made by dissolving the Product in acetone and diluting the solutions with water containing 0.1% by weight of a wetting agent sold under the trade name "SYNPERONIC" NX until the liquid preparations contained the required concentration of the Product. "SYNPERONIC" is a Registered Trade Mark.
(§2) The test procedure adopted with regard to each pest was basically the same and comprised supporting a number of the pests on a medium which was usually a host plant or a foodstuff on which the pests feed, and treating either or both the pests and the medium with the preparations. The mortality of the pests was then assessed at periods usually varying from one to seven days after the treatment.
(§3) The results of the tests are given in Table III for each of the Products, at the rate in parts per million given in the second column, as a grading of mortality designated as A, B or C wherein A indicates 80-100% mortality or knockdown, B indicates 50-79% mortality or knockdown and C indicates less than 50% mortality or knockdown.
(§4) In Table III the pest organism used is designated by a letter code and the pests species, the support medium or food, and the type and duration of test is given in Table II.
(spider mites - adults)

[2] = system: Tetranychus urticae (spider mites - ova); experiment: Mortality test on Tetranychus urticae ova (TUe), contact; details: topical, 144 h, read-out: TUe grading of mortality; for mortality at 100 ppm: rate 100 ppm
Description: as §1, §2, §3, §4

Myzus persicae (aphids) = experiment: Mortality test on Myzus persicae (MP), contact; details: topical, 72 h, read-out: MP grading of mortality; for mortality at 100 ppm: rate 100 ppm
Description: as §1, §2, §3, §4

[3] = system: Musca domestica (houseflies - adults); experiment: Mortality test on Musca domestica (MD), contact; details: topical, 24 h, read-out: MD grading of mortality; for mortality at 100 ppm: rate 100 ppm
Description: as §1, §2, §3, §4

[4] = system: Blattella germanica (cockroach nymphs); experiment: Mortality test on Blattella germanica (BG), residual; details: 72 h, read-out: BG grading of mortality
Description: as §1, §2, §3, §4

[5] = system: Heliothis virescens (tobacco budworm - larvae); experiment: Mortality test on Heliothis virescens (HV), residual; details: 72 h, read-out: HV grading of mortality; for mortality at 100 ppm: rate 100 ppm
Description: as §1, §2, §3, §4
(tobacco budworm - larvae)

[6] = system: Spodoptera exigua (lesser army worm - larvae); experiment: Mortality test on Spodoptera exigua (SP), residual; details: 72 h, read-out: SP grading of mortality
Description: as §1, §2, §3, §4
(lesser army worm - larvae)

[7] = system: Diabrotica balteata (rootworm larvae); experiment: Mortality test on Diabrotica balteata (DB), residual; details: 72 h, read-out: DB grading of mortality
Description: as §1, §2, §3, §4

[8] = system: Nephotettix cincticeps (green leaf hopper - nymphs); experiment: Mortality test on Nephotettix cincticeps (NC), contact; details: topical, 72 h, rice plant, 3 days, read-out: NC grading of mortality; for mortality at 100 ppm: rate 100 ppm; for mortality at 500 ppm: rate 500 ppm
Description: as §1, §2, §3, §4
NC Nephotettix cincticeps

[9] = French bean leaf, contact, 3 days
[10] = French bean leaf, contact, 6 days
[11] = Chinese cabbage leaf, contact, 3 days
[12] = cotton wool/sugar, contact, 1 day
[13] = rate 500 ppm, French bean leaf, contact, 6 days
[14] = rate 500 ppm, Chinese cabbage leaf, contact, 3 days
[15] = rate 500 ppm, cotton wool/sugar, contact, 1 day
[16] = rate 500 ppm, cotton leaf, residual, 3 days
[17] = rate 500 ppm, French bean leaf, contact, 3 days
[18] = rate 500 ppm, plastic pot, residual, 3 days
[19] = rate 500 ppm, filter paper/maize seed, residual, 3 days

Row | Structure (SMILES) | mortality at 500 ppm [2, 13] [%] | mortality at 500 ppm (Myzus persicae (aphids); [14]) [%] | mortality at 500 ppm [3, 15] [%] | mortality at 500 ppm [4] [%] | mortality at 500 ppm [5, 16] [%] | mortality at 500 ppm ([6]; in Gossypium hirsutum) [%] | mortality at 500 ppm ([7]; in Zea mays) [%] | mortality at 500 ppm [1, 17] [%] | other results
1 | CC1(C)C(C=C(F)F)C1C(=O)OCc1ccc(F)c(Cc2ccccc2)c1 (racemic) [III] |  |  |  |  |  |  |  |  | mortality at 100 ppm [1, 9]: 50 to 79%; mortality at 100 ppm [2, 10]: < 50%; mortality at 100 ppm (Myzus persicae (aphids); [11]): 80 to 100%; mortality at 100 ppm [3, 12]: 80 to 100%; mortality at 100 ppm [4]: < 50%; mortality at 100 ppm ([5]; cotton leaf, residual, 3 days): 80 to 100%; mortality at 100 ppm ([6]; in Gossypium hirsutum): 80 to 100%; mortality at 100 ppm ([7]; in Zea mays): 80 to 100%
2 | CC1(C)C(C=C(Br)Br)C1C(=O)OCc1ccc(F)c(Cc2ccccc2)c1 (racemic) [X] | < 50 | 80 to 100 | 80 to 100 | 80 to 100 | 80 to 100 | 80 to 100 | 80 to 100 |  | 
3 | CC1(C)[C@H](C(=O)OC(C#N)c2ccc(F)c(Cc3ccccc3)c2)[C@@H]1/C=C(\Cl)C(F)(F)F (relative stereo) [II] | 80 to 100 | 80 to 100 | 80 to 100 | 80 to 100 | 80 to 100 | 80 to 100 | 80 to 100 | 80 to 100 | 
4 | CC1(C)[C@H](C=C(Cl)Cl)[C@H]1C(=O)OCc1ccc(F)c(Cc2ccccc2)c1 (relative stereo) [IV] |  |  |  |  |  |  |  |  | mortality at 100 ppm [1, 9]: < 50%; mortality at 100 ppm [2, 10]: < 50%; mortality at 100 ppm (Myzus persicae (aphids); [11]): 80 to 100%; mortality at 100 ppm [8]: 80 to 100%; mortality at 100 ppm [3, 12]: 80 to 100%; mortality at 100 ppm [4]: < 50%; mortality at 100 ppm ([5]; cotton leaf, residual, 3 days): 80 to 100%; mortality at 100 ppm ([6]; in Gossypium hirsutum): 80 to 100%; mortality at 100 ppm ([7]; in Zea mays): 80 to 100%
5 | CC1(C)[C@H](C=C(C(F)(F)F)C(F)(F)F)[C@H]1C(=O)OCc1ccc(F)c(Cc2ccccc2)c1 (relative stereo) [IX] | < 50 | 80 to 100 | 80 to 100 | 80 to 100 | 80 to 100 | 80 to 100 | 80 to 100 | 80 to 100 | 
6 | CC1(C)[C@H](/C=C(\Cl)C(F)(F)F)[C@@H]1C(=O)OCc1ccc(F)c(Cc2ccccc2)c1 (relative stereo) [I] | 80 to 100 | 80 to 100 | 80 to 100 | 80 to 100 | 80 to 100 | 80 to 100 | 80 to 100 | 80 to 100 | 
7 | CC(C)(C)c1ncc([C@@H]2[C@@H](C(=O)OCc3ccc(F)c(Cc4ccccc4)c3)C2(C)C)cn1 (relative stereo) [XI] |  |  |  |  |  |  |  |  | mortality at 500 ppm [1]: 80 to 100%; mortality at 500 ppm ([2]; in Phaseolus vulgaris): 80 to 100%; mortality at 500 ppm (Myzus persicae (aphids); in Brassica rapa): 80 to 100%; mortality at 500 ppm [3]: 50 to 79%; mortality at 500 ppm [4, 18]: < 50%; mortality at 500 ppm ([5]; in Gossypium hirsutum): 80 to 100%; mortality at 500 ppm [6, 16]: 80 to 100%; mortality at 500 ppm [7, 19]: 80 to 100%
8 | CC(C)=CC1C(C(=O)OCc2ccc(F)c(Cc3ccccc3)c2)C1(C)C (centres unmarked) [VIII] | < 50 | 80 to 100 | 80 to 100 | < 50 | 80 to 100 | 80 to 100 | 80 to 100 | < 50 | 
9 | CC1(C)C(C(=O)OCc2ccc(F)c(Cc3ccccc3)c2)C1(C)C [VII] | < 50 | 80 to 100 | 80 to 100 |  | 80 to 100 |  |  |  | mortality at 500 ppm [4, 18]: 80 to 100%; mortality at 500 ppm [6, 16]: < 50%; mortality at 500 ppm [7, 19]: 80 to 100%
10 | CC1(C)[C@H](C(=O)OC(C#N)c2ccc(F)c(Cc3ccccc3)c2)[C@@H]1/C=C(\Cl)C(F)(F)F (some centres unmarked) [VI] |  |  |  |  |  |  |  |  | mortality at 100 ppm [1, 9]: 80 to 100%; mortality at 100 ppm [2, 10]: < 50%; mortality at 100 ppm (Myzus persicae (aphids); [11]): 80 to 100%; mortality at 100 ppm [8]: 80 to 100%; mortality at 100 ppm [3, 12]: 80 to 100%; mortality at 100 ppm [4]: 80 to 100%; mortality at 100 ppm ([5]; cotton leaf, residual, 3 days): 80 to 100%; mortality at 100 ppm ([6]; in Gossypium hirsutum): 80 to 100%; mortality at 100 ppm ([7]; in Zea mays): 80 to 100%
11 | CC1(C)[C@H](C(=O)OCc2ccc(F)c(Cc3ccccc3)c2)[C@@H]1/C=C(\Cl)C(F)(F)F [V] | 80 to 100 | 80 to 100 | 80 to 100 |  | 80 to 100 | 80 to 100 | 80 to 100 | 80 to 100 | mortality at 500 ppm [8]: 80 to 100%
12 | CC(OC(=O)C1C(C=C(Cl)C(F)(F)F)C1(C)C)c1ccc(F)c(Cc2ccccc2)c1 (centres unmarked) [XIII] |  | 80 to 100 | 80 to 100 | 80 to 100 | 80 to 100 | 80 to 100 | 80 to 100 | 80 to 100 | mortality at 500 ppm [8]: 80 to 100%
13 | CC(C)(C)c1ncc(C2C(C(=O)OC(C#N)c3ccc(F)c(Cc4ccccc4)c3)C2(C)C)cn1 (centres unmarked) [XII] |  |  |  |  |  |  |  |  | mortality at 500 ppm [1]: 80 to 100%; mortality at 500 ppm ([2]; in Phaseolus vulgaris): 50 to 79%; mortality at 500 ppm (Myzus persicae (aphids); in Brassica rapa): 50 to 79%; mortality at 500 ppm [3]: < 50%; mortality at 500 ppm [4, 18]: < 50%; mortality at 500 ppm ([5]; in Gossypium hirsutum): < 50%; mortality at 500 ppm [6, 16]: < 50%; mortality at 500 ppm [7, 19]: 80 to 100%

Reference: patent publication US4902814A, “Fluorobenzyl esters” (Imperial Chemical Industries PLC, priority 1986, dated 1990)
